What was measured:
[1] = target: KRas G12A (Homo sapiens, UniProt P01116, G12A); type: binding; conditions: TR-FRET displacement, read-out: Binding to KRas (IC50 nM) G12A
[2] = target: KRas G12V (Homo sapiens, UniProt P01116, G12V); experiment: biochemical; conditions: Binding to KRas (IC50 nM) G12V, TR-FRET displacement, KRas G12V
[3] = target: KRas G13D (Homo sapiens, UniProt P01116, G13D); type: binding; conditions: TR-FRET displacement, read-out: Binding to KRas (IC50 nM) G13D
[4] = tested on: H460 cells; experiment: Inhibition of KRas-mediated phosphorylation of ERK (Cisbio HTRF pERK), H460 cells; type: cell-based; conditions: Homo sapiens, NCI-H460, single point at 100 nM, 3 hrs compound incubation
[5] = tested on: ASPC1 cells; experiment: Inhibition of KRas-mediated phosphorylation of ERK (Cisbio HTRF pERK), ASPC1 cells; type: cell-based; conditions: Homo sapiens, AsPC-1 cells; for IC50: ASPC1, 3 h, 3 hr compound incubation, Cisbio pERK HTRF; for inhibition at 0.1 µM: ASPC1, single point at 100 nM, 3 hrs compound incubation
[6] = target: KRas G12S (Homo sapiens, UniProt P01116, G12S); type: binding; conditions: TR-FRET displacement, read-out: Binding to KRas (IC50 nM) G12S
Sequence of KRas G12S (P01116 1-169 isoform P01116-2 G12S): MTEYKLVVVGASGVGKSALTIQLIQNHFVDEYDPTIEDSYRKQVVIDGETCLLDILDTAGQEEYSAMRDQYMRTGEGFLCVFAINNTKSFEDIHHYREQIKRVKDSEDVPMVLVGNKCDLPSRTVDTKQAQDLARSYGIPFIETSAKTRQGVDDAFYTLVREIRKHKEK

[7] = target: KRas G12C (Homo sapiens, UniProt P01116, G12C); type: binding; conditions: TR-FRET displacement, read-out: Binding to KRas (IC50 nM) G12C
Sequence of KRas G12C (P01116 1-169 isoform P01116-2 G12C): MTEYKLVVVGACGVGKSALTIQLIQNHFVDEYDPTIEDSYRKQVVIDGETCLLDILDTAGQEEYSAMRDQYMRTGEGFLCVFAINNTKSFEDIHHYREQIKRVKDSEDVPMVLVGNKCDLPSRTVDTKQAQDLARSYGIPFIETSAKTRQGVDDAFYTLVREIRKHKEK

[8] = target: KRas WT (Homo sapiens, UniProt P01116); experiment: KRas binding assay (TR-FRET displacement), KRas WT; conditions: TR-FRET displacement
Sequence of KRas WT (P01116 1-169 isoform P01116-2): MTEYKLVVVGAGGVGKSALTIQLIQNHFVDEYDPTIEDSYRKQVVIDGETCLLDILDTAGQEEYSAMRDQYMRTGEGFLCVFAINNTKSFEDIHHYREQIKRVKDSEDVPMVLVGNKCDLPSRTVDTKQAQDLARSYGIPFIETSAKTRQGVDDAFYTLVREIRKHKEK

[9] = tested on: HCT116 cells; experiment: Inhibition of KRas-mediated phosphorylation of ERK (Cisbio HTRF pERK), HCT116 cells; type: cell-based; conditions: Homo sapiens, HCT-116, single point at 100 nM, 3 hrs compound incubation
[10] = target: KRas G12R (Homo sapiens, UniProt P01116, G12R); experiment: biochemical; conditions: Binding to KRas (IC50 nM) G12R, TR-FRET displacement, KRas G12R
Sequence of KRas G12R (P01116 1-169 isoform P01116-2 G12R): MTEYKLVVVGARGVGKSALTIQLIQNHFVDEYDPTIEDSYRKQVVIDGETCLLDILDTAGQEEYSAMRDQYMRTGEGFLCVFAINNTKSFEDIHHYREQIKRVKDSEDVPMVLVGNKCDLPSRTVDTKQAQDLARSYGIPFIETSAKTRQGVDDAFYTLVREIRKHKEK

[11] = target: KRas Q61H (Homo sapiens, UniProt P01116, Q61H); experiment: KRas binding assay (TR-FRET displacement), KRas Q61H; conditions: TR-FRET displacement
Sequence of KRas Q61H (P01116 1-169 isoform P01116-2 Q61H): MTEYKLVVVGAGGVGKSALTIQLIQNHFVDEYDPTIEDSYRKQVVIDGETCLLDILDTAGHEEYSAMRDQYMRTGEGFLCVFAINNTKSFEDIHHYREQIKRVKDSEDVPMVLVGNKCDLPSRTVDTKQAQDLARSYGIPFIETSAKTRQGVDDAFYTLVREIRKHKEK

[12] = target: KRas G12D (Homo sapiens, UniProt P01116, G12D); experiment: biochemical; conditions: Binding to KRas (IC50 nM) G12D, TR-FRET displacement, KRas G12D
Sequence of KRas G12D (P01116 1-169 isoform P01116-2 G12D): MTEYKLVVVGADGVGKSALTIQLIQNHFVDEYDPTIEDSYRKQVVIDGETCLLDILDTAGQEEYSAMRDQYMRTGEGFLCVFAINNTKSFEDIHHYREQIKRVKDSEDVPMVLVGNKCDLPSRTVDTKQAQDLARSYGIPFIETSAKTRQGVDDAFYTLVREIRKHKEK

[13] = tested on: H727 cells; experiment: Inhibition of KRas-mediated phosphorylation of ERK (Cisbio HTRF pERK), H727 cells; type: cell-based; conditions: Homo sapiens; for IC50: NCI-H727, 3 h, 3 hr compound incubation, Cisbio pERK HTRF; for inhibition at 0.1 µM: NCI-H727, single point at 100 nM, 3 hrs compound incubation
[14] = tested on: H358 cells; experiment: Inhibition of KRas-mediated phosphorylation of ERK (Cisbio HTRF pERK), H358 cells; type: cell-based; conditions: Homo sapiens, NCI-H358, single point at 100 nM, 3 hrs compound incubation
[15] = tested on: A549 cells; experiment: Inhibition of KRas-mediated phosphorylation of ERK (Cisbio HTRF pERK), A549 cells; type: cell-based; conditions: Homo sapiens, single point at 100 nM, 3 hrs compound incubation

Sequence of KRas G13D (P01116 1-169 isoform P01116-2 G13D): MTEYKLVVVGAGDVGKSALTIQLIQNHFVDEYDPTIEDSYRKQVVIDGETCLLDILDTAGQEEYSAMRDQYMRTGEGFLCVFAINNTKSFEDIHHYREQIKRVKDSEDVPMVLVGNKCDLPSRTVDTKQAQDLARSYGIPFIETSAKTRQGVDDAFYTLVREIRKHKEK
Sequence of KRas G12A (P01116 1-169 isoform P01116-2 G12A): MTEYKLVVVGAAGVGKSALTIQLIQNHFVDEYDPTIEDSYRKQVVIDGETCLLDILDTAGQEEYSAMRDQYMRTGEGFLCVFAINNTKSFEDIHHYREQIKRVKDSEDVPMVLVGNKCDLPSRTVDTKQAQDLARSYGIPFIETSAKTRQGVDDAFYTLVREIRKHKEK
Sequence of KRas G12V (P01116 1-169 isoform P01116-2 G12V): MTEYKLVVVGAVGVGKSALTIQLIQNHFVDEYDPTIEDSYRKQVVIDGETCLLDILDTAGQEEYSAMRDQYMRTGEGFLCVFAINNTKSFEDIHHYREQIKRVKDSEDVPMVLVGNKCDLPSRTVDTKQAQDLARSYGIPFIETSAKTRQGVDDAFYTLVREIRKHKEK

Row | IC50 [1] | IC50 [2] | IC50 [3] | IC50 [5] | IC50 [6] | IC50 [7] | IC50 [8] | IC50 [10] | IC50 [11] | IC50 [12] | IC50 [13] | SMILES | inhibition at 0.1 µM [4] | inhibition at 0.1 µM [9] | inhibition at 0.1 µM [14] | inhibition at 0.1 µM [5] | inhibition at 0.1 µM [15] | inhibition at 0.1 µM [13]
1 | < 2 nM | < 2 nM | < 2 nM | 5320 nM | < 2 nM | < 2 nM | < 2 nM | < 2 nM | < 2 nM | < 2 nM | 2880 nM | O=C1NC(=O)[C@]2(CCCN(c3nc(OCC45CCCN4CCC5)nc4c3CCN(c3c(C5CC5)c(Cl)cc5[nH]ncc35)C4)C2)N1 [Example 471, (R)-7-(7-(6-chloro-5-cyclopropyl-1H-indazol-4-yl)-2-((hexahydro-1H-pyrrolizin-7a-yl)methoxy)-5,6,7,8-tetrahydropyrido[3,4-d]pyrimidin-4-yl)-1,3,7-triazaspiro[4.5]decane-2,4-dione] | -3% | -3% | – | – | – | –
2 | 35 nM | 18 nM | 59 nM | > 10000 nM | 33 nM | 32 nM | 53 nM | 17 nM | 48 nM | 38 nM | > 10000 nM | Cc1cc2[nH]ncc2c(N2CCc3c(nc(OCC45CCCN4CCC5)nc3N3CCCC4(CC(=O)N4)C3)C2)c1C (stereo not shown) [Example 456, 6-(7-(5,6-dimethyl-1H-indazol-4-yl)-2-((hexahydro-1H-pyrrolizin-7a-yl)methoxy)-5,6,7,8-tetrahydropyrido[3,4-d]pyrimidin-4-yl)-1,6-diazaspiro[3.5]nonan-2-one] | – | – | – | – | – | –
3 | 148 nM | 76 nM | 168 nM | > 10000 nM | 52 nM | 153 nM | 143 nM | 145 nM | 179 nM | 48 nM | > 10000 nM | Cc1cc2[nH]ncc2c(N2CCc3c(nc(OCC45CCCN4CCC5)nc3N3CC4C(=O)NC(=O)C4C3)C2)c1C (stereo not shown) [Example 458, 5-(7-(5,6-dimethyl-1H-indazol-4-yl)-2-((hexahydro-1H-pyrrolizin-7a-yl)methoxy)-5,6,7,8-tetrahydropyrido[3,4-d]pyrimidin-4-yl)tetrahydropyrrolo[3,4-c]pyrrole-1,3(2H,3aH)-dione] | – | – | – | – | – | –
4 | 11 nM | 8 nM | 9 nM | > 10000 nM | 11 nM | 8 nM | 10 nM | 11 nM | 8 nM | 16 nM | > 10000 nM | Cc1cc2[nH]ncc2c(N2CCc3c(nc(OCC45CCCN4CCC5)nc3N3CCCC4(C3)NC(=O)NC4=O)C2)c1C (stereo not shown) [Example 459, 7-(7-(5,6-dimethyl-1H-indazol-4-yl)-2-((hexahydro-1H-pyrrolizin-7a-yl)methoxy)-5,6,7,8-tetrahydropyrido[3,4-d]pyrimidin-4-yl)-1,3,7-triazaspiro[4.5]decane-2,4-dione] | – | – | – | – | – | –

The next lines start with the molecule.

Row | SMILES | IC50 [1] | IC50 [2] | IC50 [3] | IC50 [5] | IC50 [6] | IC50 [7] | IC50 [8] | IC50 [10] | IC50 [11] | IC50 [12] | IC50 [13] | inhibition at 0.1 µM [4] | inhibition at 0.1 µM [9] | inhibition at 0.1 µM [14] | inhibition at 0.1 µM [5] | inhibition at 0.1 µM [15] | inhibition at 0.1 µM [13]
5 | Oc1cc(Cl)c(C2CC2)c(N2CCc3c(nc(OCC45CCCN4CCC5)nc3N3CCC[C@]4(C3)C[C@H](O)C4)C2)c1 [Example 440, (2s,4r)-6-(7-(3-chloro-2-cyclopropyl-5-hydroxyphenyl)-2-((tetrahydro-1H-pyrrolizin-7a(5H)-yl)methoxy)-5,6,7,8-tetrahydropyrido[3,4-d]pyrimidin-4-yl)-6-azaspiro[3.5]nonan-2-ol] | 46 nM | 13 nM | 73 nM | > 10000 nM | 41 nM | 30 nM | 46 nM | 36 nM | 63 nM | 44 nM | 6510 nM | – | – | -1% | -10% | -6% | -10%
6 | Oc1cc(Cl)c(C2CC2)c(N2CCc3c(nc(OCC45CCCN4CCC5)nc3N3CCC[C@]4(C3)C[C@@H](O)C4)C2)c1 [Example 441, (2r,4s)-6-(7-(3-chloro-2-cyclopropyl-5-hydroxyphenyl)-2-((tetrahydro-1H-pyrrolizin-7a(5H)-yl)methoxy)-5,6,7,8-tetrahydropyrido[3,4-d]pyrimidin-4-yl)-6-azaspiro[3.5]nonan-2-ol] | 19 nM | 8 nM | 27 nM | > 10000 nM | 15 nM | 11 nM | 19 nM | 14 nM | 21 nM | 24 nM | 5710 nM | – | – | 11% | 9% | -33% | -17%
7 | CN(C)C(=O)c1cc2n(n1)CCCN(c1nc(OCC34CCCN3CCC4)nc3c1CCN(c1cc(O)cc(Cl)c1C1CC1)C3)C2 [Example 437, 5-(7-(3-chloro-2-cyclopropyl-5-hydroxyphenyl)-2-((tetrahydro-1H-pyrrolizin-7a(5H)-yl)methoxy)-5,6,7,8-tetrahydropyrido[3,4-d]pyrimidin-4-yl)-N,N-dimethyl-5,6,7,8-tetrahydro-4H-pyrazolo[1,5-a][1,4]diazepine-2-carboxamide] | 7 nM | < 2 nM | 14 nM | 5200 nM | 4 nM | 4 nM | 8 nM | 5 nM | 12 nM | < 2 nM | 4480 nM | – | – | -16% | 2% | -10% | -2%
8 | O=S1(=O)NCC2(CCCN(c3nc(OCC45CCCN4CCC5)nc4c3CCN(c3cc(O)cc(Cl)c3C3CC3)C4)C2)N1 (stereo not shown) [Example 438, 7-(7-(3-chloro-2-cyclopropyl-5-hydroxyphenyl)-2-((tetrahydro-1H-pyrrolizin-7a(5H)-yl)methoxy)-5,6,7,8-tetrahydropyrido[3,4-d]pyrimidin-4-yl)-2-thia-1,3,7-triazaspiro[4.5]decane 2,2-dioxide] | < 2 nM | < 2 nM | < 2 nM | 5610 nM | < 2 nM | < 2 nM | < 2 nM | < 2 nM | < 2 nM | < 2 nM | 8000 nM | – | – | – | -4% | – | -7%
9 | O=C1CC2(CCCN(c3nc(OCC45CCCN4CCC5)nc4c3CCN(c3cc(O)cc(Cl)c3C3CC3)C4)C2)N1 (stereo not shown) [Example 443, 6-(7-(3-chloro-2-cyclopropyl-5-hydroxyphenyl)-2-((tetrahydro-1H-pyrrolizin-7a(5H)-yl)methoxy)-5,6,7,8-tetrahydropyrido[3,4-d]pyrimidin-4-yl)-1,6-diazaspiro[3.5]nonan-2-one] | 6 nM | 3 nM | 8 nM | > 10000 nM | 4 nM | 3 nM | 8 nM | 4 nM | 5 nM | 6 nM | 8580 nM | – | – | – | -16% | – | -25%
10 | Cc1cc2[nH]ncc2c(N2CCc3c(nc(OCC45CCCN4CCC5)nc3N3CCC[C@]4(C3)NC(=O)NC4=O)C2)c1C [Example 455, (R)-7-(7-(5,6-dimethyl-1H-indazol-4-yl)-2-((hexahydro-1H-pyrrolizin-7a-yl)methoxy)-5,6,7,8-tetrahydropyrido[3,4-d]pyrimidin-4-yl)-1,3,7-triazaspiro[4.5]decane-2,4-dione] | 4 nM | 2 nM | 4 nM | > 10000 nM | 4 nM | 3 nM | 4 nM | < 2 nM | 3 nM | 4 nM | > 10000 nM | – | – | – | – | – | –
11 | O=C1NC(=O)C2(CCCN(c3nc(OCC45CCCN4CCC5)nc4c3CCN(c3cc(O)cc(Cl)c3C3CC3)C4)C2)N1 (stereo not shown) [Example 439, 7-(7-(3-chloro-2-cyclopropyl-5-hydroxyphenyl)-2-((tetrahydro-1H-pyrrolizin-7a(5H)-yl)methoxy)-5,6,7,8-tetrahydropyrido[3,4-d]pyrimidin-4-yl)-1,3,7-triazaspiro[4.5]decane-2,4-dione] | < 2 nM | < 2 nM | < 2 nM | > 10000 nM | < 2 nM | < 2 nM | < 2 nM | < 2 nM | < 2 nM | 2 nM | 6240 nM | – | – | – | – | – | –
